In patent US20260008793A1, “IONIZABLE CATIONIC LIPIDS INCORPORATING SILICON” (ALDEXCHEM KFT., priority 2022, published 2026):

What was measured:
[1] = LNP size, PDI and zeta potential by Dynamic Light Scattering (Method A); assay type: physicochemical; details: LNP formulated by Method A; for Zeta potential (mV): 1xPBS pH 7.4; for PDI / Size (nm): DLS; for Size (nm): Luciferase-mRNA loaded
How it was run: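 LNPs formulated by microfluidic mixing of mRNA in 10 mM citrate pH 4.0 with ethanolic lipid mix (ionizable lipid added to master mix) at 3:1 aqueous:lipid ratio, then dialysed (100 kDa MWCO). Size, PDI and zeta potential measured by dynamic light scattering.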

HeLa cells = experiment: Transfection efficiency with Luciferase-mRNA, Nano-Glo assay (Method A); assay type: cell-based; details: 100 ng Luciferase (SecNLuc) mRNA, 24 h, luminescence
How it was run: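 LNPs carrying secreted NanoLuc mRNA (100, 50 or 10 ng/well, in Opti-MEM) added to HeLa cells at ~80% confluence and incubated 24 h. Medium luciferase activity measured by Nano-Glo luminescence about 3 min after reagent addition; toxicity tested in parallel by resazurin.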

SMILES | Zeta potential (mV) [1] [mV] | PDI [1] | Size (nm) [1] [nm] | Transfection* (Method A = 100 ng mRNA) (HeLa cells)
CCCCCCCCC(CCCCCC)C(=O)OCCCCCCN(CCCCO)CCCCCCOC(CCCCCCC)O[Si](C)(C)CCCCCCCC (stereo not shown) [Example 129, 15-heptyl-7-(4-hydroxybutyl)-17,17-dimethyl-14,16-dioxa-7-aza-17-silapentacosyl 2-hexyldecanoate] | −12.48 | 0.054 | 132.9 | 962783
CCCCCCCC[Si](C)(C)O[Si](C)(C)OC(CCCCCCC)OCCCCCCN(CCCCO)CCC[C@@H](C)C1CCC2C3CCC4C[C@H](OC)CC[C@]4(C)C3CC[C@@]21C (stereo partly drawn) [Example 219, 13-heptyl-5-((4R)-4-((3R,10S,13R)-3-methoxy-10,13-dimethylhexadecahydro-1H-cyclopenta[a]phenanthren-17-yl)pentyl)-15,15,17,17-tetramethyl-12,14,16-trioxa-5-aza-15,17-disilapentacosan-1-ol] | −16.69 | 0.076 | 139.4 | 531876
CCCCCCCCOC(CCCCCC)O[Si](C)(C)OCCCCCCN(CCCCO)CCCCCCOC(=O)C(CCCCCC)CCCCCCCC (stereo not shown) [Example 142, 17-hexyl-7-(4-hydroxybutyl)-15,15-dimethyl-14,16,18-trioxa-7-aza-15-silahexacosyl 2-hexyldecanoate] | −12.8 | 0.06 | 125.1 | 5491290
CCCCCCCCOC(CCCCCN(CCCCO)CCCCCCOC(=O)C(CCCCCCCC)SCCCCC)O[Si](C)(C)O[Si](C)(C)CCCCCCCC (stereo not shown) [Example 181, 6-((4-hydroxybutyl)(6-(octyloxy)-6-((1,1,3,3-tetramethyl-3-octyldisiloxaneyl)oxy)hexyl)amino)hexyl 2-(pentylthio)decanoate] | −14.73 | 0.049 | 188.6 | 14238
CC/C=C\C/C=C\C/C=C\C/C=C\C/C=C\CCCCN(CCCCO)CCCCCCOC(CCCCCCC)O[Si](C)(C)O[Si](C)(C)CCCCCCCC (stereo not shown) [Example 199, 13-heptyl-5-((5Z,8Z,11Z,14Z,17Z)-icosa-5,8,11,14,17-pentaen-1-yl)-15,15,17,17-tetramethyl-12,14,16-trioxa-5-aza-15,17-disilapentacosan-1-ol] | −12.42 | 0.08 | 164.3 | 144984
CCCCCCCCOC(CCCCCN(CCO)CCCCCCCC(=O)OC(CCCCCCCC)CCCCCCCC)O[Si](C)(C)CCCCCCCC (stereo not shown) [Example 189, heptadecan-9-yl 8-((6-((dimethyl(octyl)silyl)oxy)-6-(octyloxy)hexyl)(2-hydroxyethyl)amino)octanoate] | −10.68 | 0.066 | 170 | 45731
CCCCCCCCOC(CCCCCN(CCO)CCCCCCCC(=O)OC(CCCCCCCC)CCCCCCCC)O[Si](C)(C)OCCCCCCCC (stereo not shown) [Example 190, heptadecan-9-yl 18-(2-hydroxyethyl)-10,10-dimethyl-12-(octyloxy)-9,11-dioxa-18-aza-10-silahexacosan-26-oate] | −11.40 | 0.075 | 208.2 | 15121
CCCCCCCCO[Si](C)(C)O[Si](C)(C)OC(CCCCCCC)OCCCCCCN(CCCCO)CCCCCCOC(=O)C(CCCCCC)CCCCCCCC (stereo not shown) [Example 135, 15-heptyl-7-(4-hydroxybutyl)-17,17,19,19-tetramethyl-14,16,18,20-tetraoxa-7-aza-17,19-disilaoctacosyl 2-hexyldecanoate] | −16.11 | 0.158 | 271.2 | 538348
CCCCCCCCCCSC(CCCC)C(=O)OCCCCCCN(CCCCO)CCCCCC(OCCCCCCCC)O[Si](C)(C)OCCCCCCCC (stereo not shown) [Example 168, 7-(4-hydroxybutyl)-15,15-dimethyl-13-(octyloxy)-14,16-dioxa-7-aza-15-silatetracosyl 2-(decylthio)hexanoate] | −11.79 | 0.085 | 224.2 | 74333
CC/C=C\C/C=C\C/C=C\C/C=C\C/C=C\CCCCN(CCCCO)CCCCCCOC(CCCCCCC)O[Si](C)(C)OCCCCCCCC (stereo not shown) [Example 197, 13-heptyl-5-((5Z,8Z,11Z,14Z,17Z)-icosa-5,8,11,14,17-pentaen-1-yl)-15,15-dimethyl-12,14,16-trioxa-5-aza-15-silatetracosan-1-ol] | −12.3 | 0.135 | 170 | 497865
CCCCCCCCOC(CCCCCN(CCCCCC(OCCCCCCCC)O[Si](C)(C)O[Si](C)(C)CCCCCCCC)CCC1CCCN1C)O[Si](C)(C)O[Si](C)(C)CCCCCCCC (stereo not shown) [Example 118, N-(2-(1-methylpyrrolidin-2-yl)ethyl)-6-(octyloxy)-N-(6-(octyloxy)-6-((1,1,3,3-tetramethyl-3-octyldisiloxaneyl)oxy)hexyl)-6-((1,1,3,3-tetramethyl-3-octyldisiloxaneyl)oxy)hexan-1-amine] | −15.92 | 0.04 | 179.2 | 57119.5
CCCCCCCCOC(CCCCCN(CCO)CCCCCCCC(=O)OC(CCCCCCCC)CCCCCCCC)O[Si](C)(C)O[Si](C)(C)CCCCCCCC (stereo not shown) [Example 191, heptadecan-9-yl 8-((2-hydroxyethyl)(6-(octyloxy)-6-((1,1,3,3-tetramethyl-3-octyldisiloxaneyl)oxy)hexyl)amino)octanoate] | −10.35 | 0.05 | 159.4 | 34867
CCCCCCCCC(CCCCCC)C(=O)OCCCCCCN(CCCCO)CCCCCCO[Si](C)(C)OC(CCCCCCC)OCCCCCCC (stereo not shown) [Example 140, 17-heptyl-7-(4-hydroxybutyl)-15,15-dimethyl-14,16,18-trioxa-7-aza-15-silapentacosyl 2-hexyldecanoate] | −4.5 | 0.05 | 130.8 | 6292223
CCCCCCCCO[Si](C)(C)OC(CCCCCCC)OCCCCCCN(CCCCO)CCC[C@@H](C)C1CCC2C3CCC4C[C@H](OC)CC[C@]4(C)C3CC[C@@]21C (stereo partly drawn) [Example 217, 13-heptyl-5-((4R)-4-((3R,10S,13R)-3-methoxy-10,13-dimethylhexadecahydro-1H-cyclopenta[a]phenanthren-17-yl)pentyl)-15,15-dimethyl-12,14,16-trioxa-5-aza-15-silatetracosan-1-ol] | −13.68 | 0.897 | 178.1 | 2231945
CCCCCCCC[Si](C)(C)O[Si](C)(C)OC(CCCCCCC)OCCCCCCN(CCCCO)CCCCCCOC(CCCCCCC)O[Si](C)(C)O[Si](C)(C)CCCCCCCC (stereo not shown) [Example 108, 13-heptyl-15,15,17,17-tetramethyl-5-(6-((1-((1,1,3,3-tetramethyl-3-octyldisiloxaneyl)oxy)octyl)oxy)hexyl)-12,14,16-trioxa-5-aza-15,17-disilapentacosan-1-ol] | −14.24 | 0.211 | 198.5 | 7926
CCCCCCCCOC(CCCCCCC)O[Si](C)(C)OCCCCCN(CCCCO)CCCCCCOC(=O)C(CCCCCC)CCCCCCCC (stereo not shown) [Example 146, 16-heptyl-7-(4-hydroxybutyl)-14,14-dimethyl-13,15,17-trioxa-7-aza-14-silapentacosyl 2-hexyldecanoate] | −11.0 | 0.07 | 116.7 | 5015757
CCCCCCCCCCSC(CCCC)C(=O)OCCCCCCN(CCCCO)CCCCCCOC(CCCCCCC)O[Si](C)(C)OCCCCCCCC (stereo not shown) [Example 169, 15-heptyl-7-(4-hydroxybutyl)-17,17-dimethyl-14,16,18-trioxa-7-aza-17-silahexacosyl 2-(decylthio)hexanoate] | −13.9 | 0.09 | 159.7 | 1379853
CCCCCCCCOC(CCCCCCC)O[Si](C)(C)CCCCCCN(CCCCO)CCCCCCOC(=O)C(CCCCCCCC)SCCCCC (stereo not shown) [Example 187, 16-heptyl-7-(4-hydroxybutyl)-14,14-dimethyl-15,17-dioxa-7-aza-14-silapentacosyl 2-(pentylthio)decanoate] | −14.47 | 0.255 | 334.9 | 838984
CCCCCCCCO[Si](C)(C)OC(CCCCCCC)OCCCCCCN(CCCCCCOC(CCCCCCC)O[Si](C)(C)OCCCCCCCC)CCC1CCCN1C (stereo not shown) [Example 121, 8-heptyl-N-(8-heptyl-10,10-dimethyl-7,9,11-trioxa-10-silanonadecyl)-10,10-dimethyl-N-(2-(1-methylpyrrolidin-2-yl)ethyl)-7,9,11-trioxa-10-silanonadecan-1-amine] | −11.47 | 0.012 | 179.2 | 80788.5
